Laboratory results published in ChEMBL document CHEMBL1135951, “Potential anxiolytic agents. Part 4: novel orally-active N(5)-substituted pyrido[1,2-a]benzimidazoles with high GABA-A receptor affinity” (Bioorg Med Chem Lett, 2002).

Legend:
[1] = target: GABA-A receptor; anion channel; test: In vitro affinity for BZD site on GABA-A receptor from rat cerebral cortex using radioligand [3H]flunitrazepam; format: tissue-based
Mus musculus [2] = test: Effective dose required for inhibition of pentylenetetrazole (PTZ)-induced seizures in mice intraperitoneally; format: functional; details: ip
Mus musculus [3] = species on record: Mus musculus; test: Effective dose required for inhibition of pentylenetetrazole (PTZ)-induced seizures in mice perorally; format: functional; details: po
Rattus norvegicus [4] = species on record: Rattus norvegicus; test: Minimum effective dose required for anticonflict in rat perorally; format: functional; details: po, read-out: MED
[5] = target: T1, GABA-A receptor; anion channel (Rattus norvegicus) (UniProt O09028+P15431+P18506+P18508+P19969+P20236+P23574+P23576+P28471+P28473+P30191+P62813+P63079+P63138+Q91ZM7+Q9ES14); test: Ratio of the binding in the absence and presence of GABA was determined.; format: protein-complex assay
[6] = target: T1, GABA-A receptor; anion channel (Rattus norvegicus); test: Minimum effective dose required for anticonflict in rat intraperitoneally; format: functional
Mus musculus [7] = test: In vivo effective dose required for inhibition of pentylenetetrazole (PTZ)-induced seizures in mice intraperitoneally; format: functional
Mus musculus [8] = test: In vivo effective dose required for inhibition of pentylenetetrazole (PTZ)-induced seizures in mice perorally; format: functional
Mus musculus [9] = test: Effective dose required for motor impairment in the horizontal screen in mouse intraperitoneally; format: functional
Mus musculus [10] = species on record: Mus musculus; test: Effective dose required for motor impairment in the horizontal screen in mouse perorally; format: functional
Rattus norvegicus [11] = test: In vivo minimum effective dose required for anticonflict effect in rat perorally; format: functional; details: for minimal effective dose: Rattus norvegicus, po, read-out: MED
Rattus norvegicus [12] = test: In vivo minimum effective dose required for anticonflict in rat intraperitoneally; format: functional; details: for minimal effective dose: Rattus norvegicus, ip, read-out: MED
Rattus norvegicus [13] = test: In vivo minimum effective dose required for potentiation of EtOH-induced sleep time in rat; format: functional; details: for minimal effective dose: Rattus norvegicus, read-out: MED
Mus musculus [14] = species on record: Mus musculus; test: animal or person; details: ip
Mus musculus [15] = species on record: Mus musculus; test: animal or person; details: po
Rattus norvegicus [16] = species on record: Rattus norvegicus; test: animal or person; details: ip, read-out: MED
Description: Minimum effective dose required for anticonflict in rat after intraperitoneal administration of the compound

Rattus norvegicus [17] = species on record: Rattus norvegicus; test: animal or person; details: po, read-out: MED
Description: Minimum effective dose required for anticonflict in rat after peroral administration of the compound

Mus musculus [18] = test: In vivo effective dose required or inhibition of pentylenetetrazole (PTZ)-induced seizures in mice intraperitoneally; format: functional; details: ip
Mus musculus [19] = species on record: Mus musculus; test: Ratio of effective dose required for motor impairment in the horizontal screen to the inhibition of pentylenetetrazole (PTZ)-induced seizures in mice; format: functional
Rattus norvegicus [20] = species on record: Rattus norvegicus; test: Ratio of minimum effective dose for potentiation of EtOH-induced sleep time to anticonflict effect in rat; format: functional
Mus musculus [21] = test: In vivo effective dose required in vivo for inhibition of pentylenetetrazole (PTZ)-induced seizures in mice perorally; format: functional; details: po
Mus musculus [22] = species on record: Mus musculus; test: Effective dose required for inhibition of pentylenetetrazole (PTZ)-induced seizures in mice perorally; value ranges from 0.3 to 3; format: functional; details: po
Rattus norvegicus [23] = species on record: Rattus norvegicus; test: Minimum effective dose required for anticonflict in rat perorally; value ranges from 1 to 3; format: functional; details: po, read-out: MED
Mus musculus [24] = species on record: Mus musculus; test: Effective dose required for inhibition of pentylenetetrazole (PTZ)-induced seizures in mice perorally; value ranges from 3 to 30; format: functional; details: po
[25] = Mus musculus, ip, read-out: ED50
[26] = Mus musculus, po, read-out: ED50

SMILES	IC50 [1]	ED50 (Mus musculus [2])	ED50 (Mus musculus [3])	minimal effective dose (Rattus norvegicus [4])	GABA shift [5]	MED [6]	also measured
CCOCN1C2=C(C(=O)Nc3ccccc3F)C(=O)CCN2c2ccccc21	151 nM	> 1 mg/kg	3 mg/kg	10 mg/kg	2		
CC(=O)OCCN1C2=C(C(=O)Nc3ccccc3F)C(=O)CCN2c2ccc(F)cc21	0.2 nM	≤ 1 mg/kg	3 mg/kg	3 mg/kg	1.2		
CCOCN1C2=C(C(=O)Nc3ccsc3)C(=O)CCN2c2ccc(F)cc21	1 nM	≤ 1 mg/kg	< 0.2 mg/kg	0.3 mg/kg	1.7		
N=C(N)NCCN1C2=C(C(=O)Nc3ccccc3F)C(=O)CCN2c2ccc(F)cc21	5.6 nM	> 1 mg/kg	> 30 mg/kg	> 10 mg/kg	1.7		
CCOCCN1C2=C(C(=O)Nc3ccccc3F)C(=O)CCN2c2ccc(F)cc21	0.5 nM	≤ 1 mg/kg	0.3 mg/kg	1 mg/kg	3.2	< 10 mg/kg	
CCOCN1C2=C(C(=O)Nc3ccccc3F)C(=O)CCN2c2ccc(F)c(F)c21	0.5 nM	< 1 mg/kg	< 3 mg/kg	1 mg/kg	1.7		
CN1C(=O)CN=C(c2ccccc2)c2cc(Cl)ccc21 [DIAZEPAM]							ED50 (Mus musculus [7]; [25]): 0.3 mg/kg; ED50 (Mus musculus [8]; po): 0.5 mg/kg; ED50 (Mus musculus [9]; [25]): 0.1 mg/kg; ED50 (Mus musculus [10]; [26]): 6.3 mg/kg; minimal effective dose (Rattus norvegicus [11]): 5 mg/kg; minimal effective dose (Rattus norvegicus [12]): 5 mg/kg; minimal effective dose (Rattus norvegicus [13]): 5 mg/kg; ED50 (Mus musculus [14]): 0.11 mg/kg; ED50 (Mus musculus [15]): 0.5 mg/kg; minimal effective dose (Rattus norvegicus [16]): 5 mg/kg; minimal effective dose (Rattus norvegicus [17]): > 10 mg/kg
CCOCN1C2=C(C(=O)Nc3ccccc3F)C(=O)CCN2c2ccc(F)cc21	0.1 nM	0.01 mg/kg	0.04 mg/kg	0.4 mg/kg	1.2	10 mg/kg	ED50 (Mus musculus [8]; po): 0.04 mg/kg; ED50 (Mus musculus [18]): 0.01 mg/kg; ED50 (Mus musculus [9]; [25]): 0.3 mg/kg; ED50 (Mus musculus [10]; [26]): 27 mg/kg; Ratio (Mus musculus [19]): 675; minimal effective dose (Rattus norvegicus [11]): 0.4 mg/kg; minimal effective dose (Rattus norvegicus [12]): 10 mg/kg; minimal effective dose (Rattus norvegicus [13]): 0.3 mg/kg; Ratio (Rattus norvegicus [20]): 1
CCOCN1C2=C(C(=O)Nc3ccc(F)cc3F)C(=O)CCN2c2ccc(F)cc21	1.2 nM	≤ 1 mg/kg	< 3 mg/kg	0.1 mg/kg	2	0.1 mg/kg	ED50 (Mus musculus [7]; [25]): < 1 mg/kg; ED50 (Mus musculus [21]): < 3 mg/kg; ED50 (Mus musculus [9]; [25]): < 1 mg/kg; ED50 (Mus musculus [10]; [26]): 10 mg/kg; Ratio (Mus musculus [19]): 3; minimal effective dose (Rattus norvegicus [11]): 0.1 mg/kg; minimal effective dose (Rattus norvegicus [12]): 0.1 mg/kg; minimal effective dose (Rattus norvegicus [13]): 0.1 mg/kg; Ratio (Rattus norvegicus [20]): 1
CCOCN1C2=C(C(=O)Nc3ccc(OC)cc3F)C(=O)CCN2c2ccc(F)cc21	0.4 nM		0.3 mg/kg	0.03 mg/kg	2.2	0.1 mg/kg	
CCOCCCN1C2=C(C(=O)Nc3ccccc3F)C(=O)CCN2c2ccc(F)cc21	0.3 nM	≤ 1 mg/kg	0.3 mg/kg	1 mg/kg	1.6		
CCOCN1C2=C(C(=O)Nc3ccccc3F)C(=O)CCN2c2c1ccc(F)c2F	126 nM	1 mg/kg	> 30 mg/kg	> 10 mg/kg	1.7		
CCOCN1C2=C(C(=O)Nc3ccccc3F)C(=O)CCN2c2cc(F)cc(F)c21	13.3 nM			> 10 mg/kg	2.9		
CCOCN1C2=C(C(=O)Nc3ccc(O)cc3F)C(=O)CCN2c2ccc(F)cc21	1.4 nM				2	1 mg/kg	ED50 (Mus musculus [22]): 0.3 mg/kg; minimal effective dose (Rattus norvegicus [23]): 1 mg/kg
O=C1CCN2C(=C1C(=O)Nc1ccccc1F)N(CCO)c1cc(F)ccc12	1.2 nM	≤ 1 mg/kg	< 30 mg/kg	> 10 mg/kg	2.7	10 mg/kg	
CCOCN1C2=C(C(=O)Nc3sccc3Cl)C(=O)CCN2c2ccc(F)cc21	0.7 nM	≤ 1 mg/kg	10 mg/kg	> 10 mg/kg	1.6		
CCOCN1C2=C(C(=O)Nc3c(F)cccc3F)C(=O)CCN2c2ccc(F)cc21	0.6 nM	1 mg/kg	3 mg/kg	> 10 mg/kg	1.6	> 10 mg/kg	
CCOCN1C2=C(C(=O)Nc3ccccc3F)C(=O)CCN2c2ccc(Cl)cc21	0.5 nM	< 1 mg/kg	2 mg/kg	> 10 mg/kg	2.8		

SMILES	IC50 [1]	ED50 (Mus musculus [2])	ED50 (Mus musculus [3])	minimal effective dose (Rattus norvegicus [4])	GABA shift [5]	MED [6]	also measured
CN(C)/C=N/CCN1C2=C(C(=O)Nc3ccccc3F)C(=O)CCN2c2ccc(F)cc21	35 nM	≤ 1 mg/kg	30 mg/kg	30 mg/kg	2.1		
CCOCN1C2=C(C(=O)Nc3ccc(C)s3)C(=O)CCN2c2ccc(F)cc21	0.7 nM	≤ 1 mg/kg	0.5 mg/kg	0.3 mg/kg	2.3		
CCOCN1C2=C(C(=O)Nc3cccs3)C(=O)CCN2c2ccc(F)cc21	1 nM	≤ 1 mg/kg	0.2 mg/kg	3 mg/kg	2.1		
CN(C)CCN1C2=C(C(=O)Nc3ccccc3F)C(=O)CCN2c2ccc(F)cc21	49.9 nM	0.5 mg/kg	≤ 3 mg/kg	3 mg/kg	2.7	< 10 mg/kg	
CCOCN1C2=C(C(=O)Nc3ccc(OC(=O)OC)cc3F)C(=O)CCN2c2ccc(F)cc21	4.3 nM	1 mg/kg		1 mg/kg	3.2		ED50 (Mus musculus [24]): 3 mg/kg
COCCOCN1C2=C(C(=O)Nc3ccccc3F)C(=O)CCN2c2ccc(F)cc21	0.8 nM	0.003 mg/kg	0.1 mg/kg	3 mg/kg	2.2	< 10 mg/kg	ED50 (Mus musculus [7]): 0.003; ED50 (Mus musculus [8]): 0.1; ED50 (Mus musculus [9]): 0.07; ED50 (Mus musculus [10]): 30; Ratio (Mus musculus [19]): 300; MED (Rattus norvegicus [11]): 3; MED (Rattus norvegicus [12]): <=10; MED (Rattus norvegicus [13]): 3; Ratio (Rattus norvegicus [20]): 1
CCOCN1C2=C(C(=O)Nc3ccccc3F)C(=O)CCN2c2cc3ccccc3cc21	2.2 nM	< 1 mg/kg	> 30 mg/kg	> 10 mg/kg	1.4		
CN(C)CCCN1C2=C(C(=O)Nc3ccccc3F)C(=O)CCN2c2ccc(F)cc21	3.3 nM	3 mg/kg	30 mg/kg	> 10 mg/kg	1.4	10 mg/kg	
CN(C)c1ccc(CCN2C3=C(C(=O)Nc4ccccc4F)C(=O)CCN3c3ccc(F)cc32)cc1	8.5 nM	1 mg/kg	< 30 mg/kg		1.3	> 10 mg/kg	
O=C1CCN2C(=C1C(=O)Nc1ccccc1F)N(CC1CCCO1)c1cc(F)ccc12 (stereo not drawn)	2.3 nM	≤ 1 mg/kg	3 mg/kg	3 mg/kg	2.2		
COC(=O)OCCN1C2=C(C(=O)Nc3ccccc3F)C(=O)CCN2c2ccc(F)cc21	0.3 nM	≤ 1 mg/kg	3 mg/kg	3 mg/kg	2.2		
O=C(Nc1ccccc1F)C1=C(O)CCn2c1nc1cc(F)ccc12		≤ 1 mg/kg	> 30 mg/kg	> 30 mg/kg	1.8	10 mg/kg	
O=C1CCN2C(=C1C(=O)Nc1ccccc1F)N(CCc1ccccn1)c1cc(F)ccc12	0.9 nM	0.3 mg/kg	10 mg/kg	> 10 mg/kg	2	10 mg/kg	
O=C1CCN2C(=C1C(=O)Nc1ccccc1F)N(CCN1CCOCC1)c1cc(F)ccc12	6.1 nM	1 mg/kg	30 mg/kg		2.2	> 10 mg/kg	
O=C1CCN2C(=C1C(=O)Nc1ccccc1F)N(CCCO)c1cc(F)ccc12	1.1 nM	0.1 mg/kg	0.5 mg/kg	10 mg/kg	1.8	10 mg/kg	
COCCNCCN1C2=C(C(=O)Nc3ccccc3F)C(=O)CCN2c2ccc(F)cc21	7.4 nM	1 mg/kg	1 mg/kg	10 mg/kg	1.8	10 mg/kg	
O=C1CCN2C(=C1C(=O)Nc1ccccc1F)N(CCn1ccnc1)c1cc(F)ccc12	1.6 nM	1 mg/kg	10 mg/kg	> 10 mg/kg	2.6		
NCCN1C2=C(C(=O)Nc3ccccc3F)C(=O)CCN2c2ccc(F)cc21	5.1 nM	0.3 mg/kg	10 mg/kg	10 mg/kg	2.7	10 mg/kg	
